According to patent EP0719267B1, “SECOND MESSENGER CELL SIGNALING INHIBITORS” (CELL THERAPEUTICS, INC., priority 1993, dated 1994):

How the values were obtained:
[1] = system: murine mixed tumor lymophocyte culture (MTLC); test: Mixed tumor lymphocyte culture (MTLC), splenocytes with 2PK3; type: cell-based
Procedure: Figures 50A and 50B illustrate that compound no. 45 inhibits a murine mixed tumor lymophocyte culture (MTLC) and a human mixed leukocyte reaction (MLR). In the MTLC, splenocytes were stimulated (co-culture) with an alloantigen, B cell tumor target cell line (2PK3) in the presence or absence of compound no. 45. Cells were stimulated for 3 days, ^3H-TdR was added and the cells were harvested 4 hours later. Incorporation of ^3H-TdR was determined by liquid scintillation. Background counts were 1000-1200 CPM. For the human MLR, purified peripheral lymphocytes from two HLA disparate individuals were co-cultured for 6 days with or without compound no. 45. On the 7th day the cultures were pulsed with ^3HTdR for 24 hours and counted by scintillation.
In an assay related to the MTLC assay, cytokines levels were measured by ELISA from the supernatants of an MTLC culture. […] 45. Figures 60B and 60C illustrate that compound no.

[2] = system: murine splenocyte proliferation; test: Splenocyte (B cell) proliferation stimulated by anti-mu/anti-IgM and IL-4; type: cell-based; settings: Mus musculus, anti-IgM antibodies (10 µg/ml) and murine IL-4 (12.5 ng/ml)
Procedure: This example illustrates inhibitive effects of compounds nos. 27 and 28 on murine splenocyte proliferation stimulated by anti-mu ([…]) and interleukin-4 (IL-4, 12.5 ng/ml). This in vitro assay, described above, is indicative of immune-suppressive/autoimmune treatment assay emphasizing humoral or B cell immune response. The inventive compound was added to the cells at the doses indicated two hours prior to activation with anti-mu and IL-4. Both compounds nos. 27 and 28 inhibited splenocyte proliferation in a dose-response manner. IC50 values for compounds nos. Background counts were less than 200 cpm.
In figure 57, results shown illustrate that inventive compound no. 45 inhibits B cell proliferation. Murine splenocytes were stimulated with anti-IgM antibodies (10 µg/ml) and murine IL-4 (12.5 ng/ml). Cells were pulsed with ^3HTdR at 44 hours, harvested 4 hours later, and the incorporation of ^3H-TdR was determined by liquid scintillation.

[3] = system: murine thymocyte proliferation; test: Thymocyte proliferation co-stimulated by ConA and IL-2 (tritiated thymidine); type: cell-based, Balb/C mice; settings: for inhibition with delayed addition: 1 µM
[4] = system: IL-2; test: IL-2 production in thymocytes stimulated with ConA and IL-1 (ELISA); type: cell-based, murine; settings: ConA and IL-1, 4 days
From the text: Thymocytes were stimulated with ConA and IL-1 for 4 days with or without adding inventive compounds to the culture media. The supernatants were removed and assayed by ELISA for IL-2 levels by a commercially available kit.

[5] = system: 72 kD MMP; test: Metalloproteinase production in TNF-α stimulated THP-1 cells (zymogram); type: cell-based, human; settings: 2.5 µM, TNF-α 18 hours
Procedure: (§1) Another assay measures an ability of the inventive compounds, as represented by compound no. 50, to inhibit metalloproteinase production in cancer cells. In the assay protocol, THP-1 human leukemia cells (1-2 x 10^6/35 mm dish) were plated in RPMI medium with 0.5% serum. Inventive compound no. 50 was added at 2.5 µM. Following incubation for 1 hour, TNF-α was added and incubated for 18 hours. The supernatants from control and treated plates were collected and protease activity was determined in gelatin gels (zymogram) after electrophoretic protein separation. […] The presence of compound no. […] Compound no. 50, representative of compounds of the invention, is capable of substantially reducing metastatic potential of cancer cells by blocking metalloprotease production.

[6] = system: 92 kD matrix metalloprotease (MMP); test: as above; type: cell-based, human; settings: 2.5 µM, TNF-α 18 hours
Procedure: as §1

[7] = system: Swiss/3T3 cells; test: EGF-induced proliferation in Swiss/3T3 cells; type: cell-based; settings: 20 ng/ml EGF
Procedure: As illustrated in figures 67A and 67B, inventive compound no. 58 inhibited VEGF-induced proliferation in HUVEC and EGF-induced proliferation in Swiss/3T3 cells, respectively. Procedurally, HUVEC were placed in 0.5% serum containing medium prior to stimulation with various concentrations of VEGF, with or without inventive compound no. 58 (5 µM). Twenty four hours later the cells were pulsed with ^3H-TdR and 4 hours later harvested and counted by scintillation. The IC50 for inhibition was approximately 50-100 nM. Swiss 3T3 cells were stimulated with 20 ng/ml EGF and 24 hours later harvested and counted by scintillation.

Compound: CCCCCCCCNCC(O)CCCCCCCCCn1c(=O)c2c(ncn2C)n(C)c1=O (stereo not drawn) [compound no. 45]
- IFN-γ release ([1]; ELISA of supernatants): inhibited IFN-γ release
- IL-2 or TNFα release ([1]; ELISA of supernatants): did not inhibit either IL-2 or TNFα release from the MTLC
- IC50 ([1]; Mus musculus, 72 h, 3 days): ~500 nM
- overall proliferation ([1]; fig. 60A): inhibition of overall proliferation
- IC50 [2]: 1200 nM
- inhibition with delayed addition ([3]; added 72 and 92 hours after IL-2): significant inhibition remained even at 72 and 92 hours following addition of IL-2
- inhibition with delayed addition ([3]; added 24 hours after IL-2): maximally inhibits thymocyte proliferation even when added 24 hours following the IL-2 stimulation
- IC50 ([3]; Mus musculus, Thymocyte, Con A (0.25 µg/ml) and IL-2 (20 ng/ml), 96 hours): ~350 nM

Compound: CCCCCCCCCCCCNCC(O)CCCCCCCCCn1c(=O)c2c(ncn2C)n(C)c1=O (stereo not drawn) [compound no. 50, 1-(11-Dodecylamino-10-hydroxyundecyl)-3,7-dmethylxanthine]
- IL-2 production [4]: do not inhibit production of IL-2
- TNF-α-stimulated expression of 72 kD MMP [5]: blocked the TNF-α-stimulated expression of both the 92 and 72 kD MMPs
- TNF-α-stimulated expression of 92 kD MMP [6]: blocked the TNF-α-stimulated expression of both the 92 and 72 kD MMPs

Compound: COc1cc(CNCC(O)CCCCCCCCCn2c(=O)c3c(ncn3C)n(C)c2=O)cc(OC)c1OC (stereo not drawn) [compound no. 58, 1-[11-(3,4,5-Trimethoxybenzylamino)-10-hydroxyundecyl]-3,7-dimethylxanthine]
- IC50 [7]: ~20 nM
